These results are taken from article PMC6973020, “Quinoline‐Conjugated Ruthenacarboranes: Toward Hybrid Drugs with a Dual Mode of Action” (Chemmedchem, 2019).

In assay [1] the test system is LN229 cells. Nature of the assay: AO staining (acidic vesicles), LN229. Type of assay: cell-based, human. The following applies: LN229, IC50 dose, 72 h, compared with cells treated with an IC50 dose of 3. As for the experimental part: Flow cytometry. For gaining better insights into the mechanisms of action of the ruthenium complexes, MCF‐7 and LN229 cells incubated with an IC50 dose of 3 or 4, were analyzed via flow cytometry. Several staining protocols were carried out in parallel, in independent experiments: i) AnnV/PI for the detection of apoptotic cell death, ii) AO for the detection of acidic vacuoles, iii) ApoStat for checking caspase activation, iv) CFSE for detecting interference with cellular proliferation, and v) DAPI for the detection of morphological signs of apoptosis. Untreated cells or cells treated only with BSA (control) were also measured, as reference for BSA‐free and BSA‐containing drug formulations, respectively. […] Channels FL1 (green emission), FL2 (orange emission) and/or FL3 (dark red emission) were used for fluorescence detection, according to the specific staining agent. Sideward Scatter (SSC) for MCF‐7 cells treated with 4 or BSA−4 was also analyzed, with respect to the control, for detection of shifts of cell granularity. […]
Staining Protocols for Flow Cytometric Analysis. […] Finally, cells were washed in PBS, resuspended in PBS (or AnnV‐binding buffer for AnnV/PI), and analysed. […] Cells were then washed, trypsinised, dissolved in PBS and analysed by CyFlow® Space Partec using the PartecFloMax® software (Partec GmbH, Münster, Germany). […]

Assay [2] relates to A375, B16 and MCF‐7 cell lines. Nature of the assay: CV cell viability assay, summary for A375, B16 and MCF‐7. Type of assay: cell-based. The following applies: range over the three cell lines, 72 h. From the text:
Thus, care must be taken when comparing their biological activities with those of our previous studies, even with the same cell line, because the covalent vs. non‐covalent combination of drugs might imply different mechanisms of action in the cell.44 Here, we studied the in vitro activity of ruthenacarborane 3, i. e. free acid, and its 8‐hydroxyquinolyl (4) and 4‐{(7‐chloroquinolin‐4‐yl)oxy}butanol‐1‐yl (5) esters, against a panel of cancer cell lines (B16 mouse melanoma, A375 human skin melanoma, MCF‐7 human breast adenocarcinoma, LN229 human glioblastoma, U251 human glioma). Human fibroblast cell line MRC‐5, murine microglial cell line BV‐2 as well as peritoneal exudate cells (Mph), were chosen as models for non‐malignant cells. […] Cells were exposed to 3–5 for 72 h, after which cell viability was determined via 3‐(4,5‐dimethylthiazol‐2‐yl)‐2,5‐diphenyltetrazolium bromide (MTT) and crystal violet (CV) assays, in parallel (Table 2). […]
Colorimetric assays for cellular viability. […] The absorbance was measured with an automated microplate reader at λmax 540 nm, with the reference λmax 670 nm. Untreated cells or cells treated only with BSA (control) were also measured, as reference for BSA‐free and BSA‐containing drug formulations, respectively. […] Cell viability is expressed as percentage (%) relative to control (untreated cultures).58 Experiments were run in three independent replicates. […]

The term IC50 denotes the concentration needed to halve the response being measured.

“closo ‐[3‐(η^6‐p‐Cymene)‐1‐(quinolin‐8‐yl‐acetate)‐3,1,2‐RuC2B9H10] [Compound 4]”: the “number of acidic vesicles (AO staining)” value in assay [1] is recorded as “significantly lower”.
Take “closo‐ [Compound 3, closo‐ [3‐(η^6‐p‐Cymene)‐1‐(CH2COOH)‐3,1,2‐RuC2B9H10]]”: the IC50 in assay [2] lay within 18 to 23 µM.
